Assay results as given in paper PMC10566733 (PLOS ONE, 2023).

System: monolayer of bEnd.3 brain endothelial cells
Conditions: 1000 μM TAT; Fig 5A
Protocol: Briefly, the cells were seeded onto 24-well culture inserts (Falcon Permeable Support for 24-well plate; cat. #353104), and one-half of the medium was replaced every other day, and the cells were cultured for 5 days prior to the performance of a permeability assay. On the day of the assay, the culture medium was replaced with serum-free DMEM with FITC-linked peptides or bovine serum albumin (Sigma).
Medium collected from cell culture in vitro (12 μl medium per culture) and tissue samples harvested from mice in vivo were denatured by boiling in lysis buffer, separated by electrophoresis, transferred onto PVDF membranes, and imaged after incubation in primary and secondary antibodies as described previously for in vitro [55] and in vivo [57] experiments. The following primary antibodies were used: anti-albumin (1:2000; GeneTex, cat. #102419, for the in vitro experiments; 1:5000; Abcam, cat. #ab106582, for the in vivo experiments) and anti-ɑ-tubulin (1:5000; GeneTex, cat. #GTX628802) antibodies, and the following secondary antibodies were used: anti-rabbit (1:5000; GeneTex, cat. #GTX213110-01), anti-mouse (1:1000; GeneTex, cat. #GTX213111-01), and anti-chicken (1:1000; Abcam, cat. #ab97135) antibodies.

## N=C(N)NCCC[C@H](NC(=O)[C@H](CCCNC(=N)N)NC(=O)[C@H](CCCNC(=N)N)NC(=O)[C@H](CCC(N)=O)NC(=O)[C@H](CCCNC(=N)N)NC(=O)[C@H](CCCNC(=N)N)NC(=O)[C@H](CCCCN)NC(=O)[C@H](CCCCN)NC(=O)[C@H](CCCNC(=N)N)NC(=O)CNC(=O)[C@@H](N)Cc1ccc(O)cc1)C(=O)O [TAT]
  Effect of TAT on the amount of albumin that crossed the monolayer: significantly increased
